Results on 13 compounds are retold here after article PMC8746645, “Isolation of Anti-Diabetic Active Compounds from Benincasae Exocarpium and Development of Simultaneous Analysis by HPLC-PDA” (Molecules, 2021).

The IC50 is the concentration that inhibits the measured activity by half.

Where two headings read alike, the source gives them in different places.

In data set [1] the test system is advanced glycation end-products (AGEs) formation in bovine serum albumin (BSA)-glucose system. It is filed as biochemical. Here is the method: The AGE formation inhibitory assay of BSA-glucose was conducted using a spectrophotometric method developed in a previous study. All test samples were dissolved in 10% DMSO at five different concentrations (1000–10,000 μg/mL for the extract and fractions and 100–10,000 μM for the compounds). The assay mixtures contained the following constituents: 135 µL of 50 mM phosphate buffer (pH 7.4) containing 0.02% sodium azide and BSA (10 mg/mL), 135 µL of 0.4 M D-fructose and D-glucose, and 30 µL of sample. The mixture was incubated at 60 °C for 2 days. After incubation, the fluorescence was measured at an excitation wavelength of 350 nm and emission wavelength of 450 nm in a 96-black well plate. AMG was used as a positive control. The inhibitory activity on AGE formation of BSA-glucose was calculated using the following formula: {(Ac − As)/Ac} × 100, where Ac is the fluorescence of the control and As is the fluorescence of the sample. Controls contained the same reaction mixture, except that phosphate buffer was added instead of the sample. The half-maximal inhibitory concentration (IC50) values of triplicate measurements of the samples and AMG were calculated and expressed as the mean ± SD.

For data set [2], the system named is advanced glycation end-products (AGEs) formation in BSA-methylglyoxal (MGO) system. Description: AGE formation inhibitory assay, BSA-MGO system. It is filed as biochemical, bovine. The method, then: The AGE formation inhibitory assay of BSA-MGO was conducted using spectrophotometry according to a previously described method with modification. All samples were dissolved in 10% DMSO. The assay mixtures contained 50 µL of 50 mM phosphate buffer (pH 7.4) containing 0.02% sodium azide and BSA (10 mg/mL), 50 µL of 7 mM MGO, and 50 µL of sample. After incubation at 60 °C for 2 days, fluorescence was measured on excitation and emission wavelengths of 340 and 420 nm, respectively, in a 96-black well plate. AMG was used as a positive control. The inhibitory activity on AGE formation by BSA-MGO was calculated using the same equation applied in the BSA-glucose assay.

Details of data set [3]: method as in PMID 29885110. The settings on record: cited from earlier work.
For data set [4], the target named is α-glucosidase from Saccharomyces cerevisiae (Saccharomyces cerevisiae, UniProt P53341). Description: α-glucosidase inhibitory activity assay (p-NPG substrate). It is filed as biochemical. The note with it: for IC50: compounds, pH 6.8, 37 °C, 405 nm, mean ± SD (n = 3). Here is the method:
Among the anti-diabetes activity assays, the Infinite® F200 PRO spectrophotometer (TECAN, Männedorf, Zürich, Switzerland) was used for the AGE formation inhibitory activity assay in the BSA-glucose and BSA-MGO systems. In addition, the α-glucosidase inhibitory activity assay was performed using Biotek EPOCH2 (Biotek, Winooski, VT, USA).
α-Glucosidase inhibitory activity was measured spectrophotometrically according to the previously described method. All samples were dissolved in 10% DMSO. This assay consisted of a 50 μL sample solution, 50 μL of 50 mM potassium phosphate buffer (pH 6.8), and 50 μL of 0.5 U/mL α-glucosidase was preincubated for 10 min at 37 °C. After incubation, 50 μL of p-NPG was added to the mixed assay mixtures. […] The inhibitory activity was calculated using the equation applied in the BSA-glucose assay, but Ac and As are the absorbance values of the control and sample, respectively.

The mark [5] stands for this setting: compounds, 60 °C, 2 days, fluorescence ex 350/em 450 nm, mean ± SD (n = 3), read-out: IC50 BSA-Glucose.
[6] abbreviates: compounds, 60 °C, 2 days, fluorescence ex 340/em 420 nm, mean ± SD (n = 3).

α-glucosidase from Saccharomyces cerevisiae, sequence (P53341 whole entry): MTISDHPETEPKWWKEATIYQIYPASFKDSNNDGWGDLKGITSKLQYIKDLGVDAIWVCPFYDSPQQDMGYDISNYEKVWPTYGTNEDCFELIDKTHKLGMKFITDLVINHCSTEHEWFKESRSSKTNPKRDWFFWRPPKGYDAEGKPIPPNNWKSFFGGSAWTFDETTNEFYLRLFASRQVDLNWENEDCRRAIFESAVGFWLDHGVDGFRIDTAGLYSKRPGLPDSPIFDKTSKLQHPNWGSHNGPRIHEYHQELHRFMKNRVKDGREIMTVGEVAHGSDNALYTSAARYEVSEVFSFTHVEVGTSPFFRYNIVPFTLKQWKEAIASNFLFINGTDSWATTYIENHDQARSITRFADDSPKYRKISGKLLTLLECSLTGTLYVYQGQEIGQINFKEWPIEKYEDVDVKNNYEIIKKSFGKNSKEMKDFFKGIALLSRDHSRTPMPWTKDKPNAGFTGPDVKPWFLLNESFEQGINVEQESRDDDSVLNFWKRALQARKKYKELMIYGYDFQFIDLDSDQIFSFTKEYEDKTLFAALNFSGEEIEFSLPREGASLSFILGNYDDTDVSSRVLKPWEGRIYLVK

In the case of `Cl.N=C(N)NN` [AMG, aminoguanidine hydrochloride, reference compound], the “IC50 BSA-Glucose” value in data set [1] (extract and fractions, 60 °C, 2 days, fluorescence ex 350/em 450 nm, mean ± SD (n = 3)) is 217.93 ± 1.54 µg/mL. For the same compound, the “IC50 BSA-MGO” value in data set [2] (extract and fractions, 60 °C, 2 days, fluorescence ex 340/em 420 nm, mean ± SD (n = 3)) was 167.32 ± 8.40 µg/mL.
`N=C(N)NN` [Aminoguanidine, aminoguanidine]: the “toxicity during clinical evaluation” value in data set [3] is “toxic”.
On to `O=C(O)c1ccc(O)cc1` [Compound 1, p-hydroxybenzoic acid], for which the “inhibition of AGE formation in BSA-glucose system (in words)” value in data set [1] is reported as “no activity”. Moreover, in data set [2], the “inhibition of AGE formation in BSA-MGO system (in words)” value is recorded as “no or slight inhibitory activity”. Also, the “α-glucosidase inhibitory activity (in words)” value in data set [4] is listed as “no, or slight, inhibitory activity”.
Turning to `O=C(O)c1ccc(O)c(O)c1` [Compound 2, protocatechuic acid], the IC50 worked out at 79.8 ± 1.91 µM in data set [1] (setting [5]) and 53.2 ± 23.2 µM in data set [2] (setting [6]).
Take `COc1ccc(C=O)cc1O` [Compound 3, isovanillin]: the “inhibition of AGE formation in BSA-glucose system (in words)” value in data set [1] is “no activity”. The “inhibition of AGE formation in BSA-MGO system (in words)” value in data set [2] was “no or slight inhibitory activity”. This compound had an IC50 in data set [2] (setting [6]) of more than 500 µM. Also, in data set [4], the “α-glucosidase inhibitory activity (in words)” value is “no, or slight, inhibitory activity”.
`O=Cc1ccc(CO)o1` [Compound 4, 5-hydroxymethylfurfural]: the “inhibition of AGE formation in BSA-glucose system (in words)” value in data set [1] was “no activity”. For the same compound, the “inhibition of AGE formation in BSA-MGO system (in words)” value in data set [2] is listed as “no or slight inhibitory activity”. The same compound registered an IC50 in data set [2] (setting [6]) of 381 ± 14.7 µM. Further, in data set [4], the “α-glucosidase inhibitory activity (in words)” value is “no, or slight, inhibitory activity”.
With `O=c1cc(-c2ccc(O)cc2)oc2cc(O)c([C@@H]3O[C@H](CO)[C@@H](O)[C@H](O)[C@H]3O)c(O)c12` [Compound 5, isovitexin], the figures for the IC50 in data set [1] (setting [5]) and in data set [2] (setting [6]) were 20.2 ± 0.1 µM and 7.49 ± 0.24 µM, respectively.
Consider `O=c1cc(-c2ccc(O)cc2)oc2c([C@@H]3O[C@H](CO)[C@@H](O)[C@H](O)[C@H]3O)c(O)cc(O)c12` [Compound 6, vitexin], for which the IC50 is 19.5 ± 1.47 µM in data set [1] (setting [5]) and 14.9 ± 3.66 µM in data set [2] (setting [6]).
Turning to `O=c1cc(-c2ccc(O)c(O)c2)oc2c([C@@H]3O[C@H](CO)[C@@H](O)[C@H](O)[C@H]3O)c(O)cc(O)c12` [Compound 7, orientin], the IC50 was 9.61 ± 0.27 µM in data set [1] (setting [5]) and 13.3 ± 0.65 µM in data set [2] (setting [6]).
Regarding `O=C(O)c1cc(O)c(O)c(O)c1` [Compound 8, gallic acid], the concentration for half-maximal inhibition (IC50) in data set [1] (setting [5]) is 192 ± 2.15 µM; in data set [2] (setting [6]), more than 500 µM. Further, the “inhibition of AGE formation in BSA-MGO system (in words)” value in data set [2] is reported as “no or slight inhibitory activity”.
For the compound `O=C(O)/C=C/c1ccc(O)c(O)c1` [Compound 9, caffeic acid], the IC50 worked out at 54.51 ± 0.3 µM in data set [1] (setting [5]) and 43 ± 9.41 µM in data set [2] (setting [6]). The “α-glucosidase inhibitory activity (in words)” value in data set [4] was “no, or slight, inhibitory activity”.
Consider `C[C@@H]1O[C@@H](O[C@@H]2[C@@H](O)[C@H](O)[C@@H](CO)O[C@H]2c2c(O)cc(O)c3c(=O)cc(-c4ccc(O)cc4)oc23)[C@H](O)[C@H](O)[C@H]1O` [Compound 10, vitexin-2″-O-rhamnoside], for which the IC50 is 29.6 ± 1.02 µM in data set [1], 12.5 ± 0.81 µM in data set [2] and 12.8 ± 1.18 µM in data set [4].
For `O=c1cc(-c2ccc(O)cc2)oc2c([C@@H]3O[C@H](CO)[C@@H](O[C@@H]4O[C@H](CO)[C@@H](O)[C@H](O)[C@H]4O)[C@H](O)[C@H]3O)c(O)cc(O)c12` [Compound 11, vitexin-4″-O-glucoside], the IC50 in data set [1] (setting [5]) was 14.5 ± 0.39 µM; in data set [2] (setting [6]), 11.6 ± 1.1 µM; in data set [4], 65.4 ± 4.22 µM.
